Reference: ChEMBL document CHEMBL1133384, “Synthesis and study of a new adenine-acridine tandem, inhibitor of exonuclease III” (Bioorg Med Chem Lett, 2000)

Assays:
Nucleic Acid = experiment: Compound was evaluated for its binding affinity constant for native calf thymus DNA in competition experiment with ethium bromide; format: nucleic-acid assay, Bos taurus
L1210 = experiment: The cytotoxicity against murine leukemia L1210; format: functional, cell-based; details: Mus musculus

Question: `COc1ccc2nc3cc(Cl)ccc3c(NCCCN(CCC(=O)NCCn3cnc4c(N)ncnc43)C(=N)N)c2c1.Cl` was tested. Which Ka (Nucleic Acid) did it give?
Answer: 200000 M⁻¹

Question: What about the IC50 (L1210) of the same molecule?
Answer: > 100 µM
